Results: publication PMC9110316 (Computational and Structural Biotechnology Journal, 2022)
Read-outs that look alike come from different tables or passages of the source. Where a SMILES comes first, the peptide text is derived from it. [ ]: non-standard residue; d: D form. The star is where a group is joined. Nle = CCCC[CH](N)C(=O)O; Cbz = O=C(OCc1ccccc1)*

What was measured:
[1] = tested on: SARS-CoV-2 B.1.351 (Beta) variant pseudovirus; test: organism not typed; format: cell-based; conditions: A549, read-out: EC50, inhibition of SARS-CoV-2 B.1.351 (Beta) variant pseudovirus infection
[2] = tested on: SARS-CoV-2 B.1.351 (Beta) variant pseudovirus; test: organism not typed; format: cell-based; conditions: Huh-7, read-out: EC50, inhibition of SARS-CoV-2 B.1.351 (Beta) variant pseudovirus infection

Row | Compound | EC50 [1] [µM] | EC50 [2] [µM]
1 | CCCCC(C=O)NC(=O)C(CC(C)C)NC(=O)C(CC(C)C)NC(C)=O (stereo not drawn) [Mg-101] (Ac-Leu-Leu-[Nle]-aldehyde; configuration not given here) | 1.89 | 0.86
2 | CC(C)C[C@@H](C=O)NC(=O)[C@H](CC(C)C)NC(=O)[C@H](CC(C)C)NC(=O)OCc1ccccc1 [Mg-132] (Cbz-Leu-Leu-Leu-aldehyde) | 0.908 | 0.901
3 | CC(NC(=O)C(Cc1ccccc1)NC(=O)OCc1ccccc1)C(=O)CF (stereo not shown) [Z-FA-FMK] | 5.31 | 10
4 | CCCC[C@@H](C=O)NC(=O)[C@H](CC(C)C)NC(=O)OCc1ccccc1 [calpeptin] | 36.4 | 23.9
5 | CC(=O)N[C@@H](CC(C)C)C(=O)N[C@@H](CC(C)C)C(=O)N[C@H](C=O)CCCNC(=N)N [leupeptin hemisulfate] | 7.71 | 17.1
